Source: patent US20070048356A1, “Antimicrobial treatment of nonwoven materials for infection control” (priority 2005, published 2007)

How the values were obtained:
[1] = system: broad spectrum of microorganism (gram positive and gram negative bacteria, and fungi: mold and yeast); conditions: within 15 minutes; baseline data of Tables 12-15
Procedure: The experimental procedure is based on ASTM E 2149-01. In brief, the test is performed by first adding a 2″×2″ sample of treated material to a flask containing 50 mL of a buffered-saline solution. The flask is then inoculated with the challenge organism (6.5-7 log10 total) and shaken through mechanical means for a designated period of time. At specified time points, a sample of the solution is then removed and plated. Lastly, the plate is incubated, examined for microbial growth, and the number of colony forming units counted. The log reduction in organisms is measured by comparing the growth on the experimental plate to control plates with no antimicrobial treatment.

A. Niger (ATCC 16404) = assay: Dynamic Shake Flask (based on ASTM E 2149-01) on treated nonwoven; type: cell-based; conditions: Table 14, Spunbond
Procedure: (§1) The test organisms are grown in 25 mL appropriate broth medium for about 24±2 hours at 37±2° C. in a wrist action shaker. The bacterial culture is then transferred by placing about 100 μL aliquot in 25 mL of broth and grown again for about 24±2 hours at 37±2° C. The organisms are then centrifuged and washed three times with phosphate buffered saline (PBS). The organisms are then suspended in PBS to obtain an inoculum of approximately 1×10^8 CFU/mL.
(§2) The test articles and control swatches are exposed to an ultraviolet light source for about 5-10 minutes per side before testing to assure that the swatches are sanitized prior to inoculation with the bacteria. The test materials are brought into contact with a known population of test bacteria from the inoculum for a specified period of time. A sample is then plated at the end of the exposure time to enumerate the surviving bacteria. The log10 reduction form the control material and the original population is calculated using the following formula: Log10 Control*−Log10 CFU/swatch Test Article=Log10 Reduction
[…] This buffer solution contains a chemical to de-activate or “neutralize” the antimicrobial agent to (a) stop the active agent from killing the organisms after the designated time period and (b) to prevent artifacts that may arise from exposing the microorganisms to the antimicrobial in solution rather than solely on the substrate. Because each chemical used as an antimicrobial agent is a little different (ie: cationic, nonionic, metal, etc), a different neutralizer was likely added in each case to shut off the antimicrobial at the desired end point of the experiment. […] The neutralizer employed may be selected from a list that is commonly used in the field. These include, non-ionic degtergents, Bisulphate, lecithin, leethen broth, thiosulfate, thioglycolate, and pH buffers, Method similar to those described in American Society for Testing and Materials, Standard Practices for Evaluating Inactivators of Antimicrobial Agents Used in Disinfectant, Sanitizer, Antiseptic, or Preserved Products, Amer. Soc. Testing Mat. E 1054-91 (1991) can be used.

[2] = system: P. aeruginosa (ATCC 9027); assay: as above; type: cell-based
Procedure: as §1, §2
[…] This buffer solution contains a chemical to de-activate or “neutralize” the antimicrobial agent to (a) stop the active agent from killing the organisms after the designated time period and (b) to prevent artifacts that may arise from exposing the microorganisms to the antimicrobial in solution rather than solely on the substrate. Because each chemical used as an antimicrobial agent is a little different (ie: cationic, nonionic, metal, etc), a different neutralizer was likely added in each case to shut off the antimicrobial at the desired end point of the experiment. […] The neutralizer employed may be selected from a list that is commonly used in the field. […] Testing Mat.

S. aureus (ATCC 6538) = assay: as above; type: cell-based
C. Albicans (ATCC 10231) = assay: as above; type: cell-based; conditions: Table 15, SMS
S. aureus = assay: Zone of inhibition test to measure leaching; type: cell-based; conditions: AATCC 147 and ASTM E 2149-01 protocols
Procedure: First, according to the American Association of Textile Chemists and Colorists (AATCC)-147 test protocol, in a dry-leaching test, the antimicrobial treated material is placed in an agar plate seeded with a known amount of organism population on the plate surface. The plate is then incubated for about 18-24 hours at about 35° C. or 37° C.±2° C. Afterwards, the agar plate is assessed. Any leaching of the antimicrobial from the treated material would result in a zone of inhibited microbial growth. […] The piece of material was allowed to sit for 24 hours in solution and then the supernatant of the solution was extracted. […] About 100 micro liters (μL) of supernatant is added to a 8 mm well cut into a seeded agar plate and allow to dry. […] In summary, these protocols are performed by incubating an inoculated plate containing either the actual treated material or a solution that has been exposed to the treated material. This plate is then analyzed for zones of inhibition of organism growth to detect if the antimicrobial has leached off of the material or into the solution.

## Polyhexamethylene biguanide [PHMB]
[1]
  log10 reduction in colony forming units (CFU): ≥ 3 log10
A. Niger (ATCC 16404); contact time 1 min
  Dynamic Shake Flask Log10 Reduction: 4.00 Log10
A. Niger (ATCC 16404); contact time 5 min
  Dynamic Shake Flask Log10 Reduction: 4.00 Log10
A. Niger (ATCC 16404); contact time 15 min
  Dynamic Shake Flask Log10 Reduction: 4.00 Log10
[2]; Table 13, Meltblown, contact time 1 min
  Dynamic Shake Flask Log10 Reduction: 4 Log10
[2]; Table 13, Meltblown, contact time 5 min
  Dynamic Shake Flask Log10 Reduction: 4 Log10
[2]; Table 13, Meltblown, contact time 15 min
  Dynamic Shake Flask Log10 Reduction: 4 Log10
[2]; Table 13, SMS, contact time 1 min
  Dynamic Shake Flask Log10 Reduction: 4 Log10
[2]; Table 13, SMS, contact time 5 min
  Dynamic Shake Flask Log10 Reduction: 4 Log10
[2]; Table 13, SMS, contact time 15 min
  Dynamic Shake Flask Log10 Reduction: 4 Log10
[2]; Table 13, Spunbond, contact time 1 min
  Dynamic Shake Flask Log10 Reduction: 4 Log10
[2]; Table 13, Spunbond, contact time 5 min
  Dynamic Shake Flask Log10 Reduction: 4 Log10
[2]; Table 13, Spunbond, contact time 15 min
  Dynamic Shake Flask Log10 Reduction: 4 Log10
[2]; Table 18, Spunbond substrate, contact time 1 min
  Dynamic Shake Flask Log10 Reduction: 0.07 Log10
[2]; Table 18, Spunbond substrate, contact time 5 min
  Dynamic Shake Flask Log10 Reduction: 0.12 Log10
[2]; Table 18, Spunbond substrate, contact time 15 min
  Dynamic Shake Flask Log10 Reduction: 0.34 Log10
[2]; Table 20, SMS substrate, contact time 1 min
  Dynamic Shake Flask Log10 Reduction: 0.07 Log10
[2]; Table 20, SMS substrate, contact time 5 min
  Dynamic Shake Flask Log10 Reduction: 0.12 Log10
[2]; Table 20, SMS substrate, contact time 15 min
  Dynamic Shake Flask Log10 Reduction: 0.34 Log10
S. aureus (ATCC 6538); Table 12, Meltblown, contact time 1 min
  Dynamic Shake Flask Log10 Reduction: 4 Log10
S. aureus (ATCC 6538); Table 12, Meltblown, contact time 5 min
  Dynamic Shake Flask Log10 Reduction: 4 Log10
S. aureus (ATCC 6538); Table 12, Meltblown, contact time 15 min
  Dynamic Shake Flask Log10 Reduction: 4 Log10
S. aureus (ATCC 6538); Table 12, SMS, contact time 1 min
  Dynamic Shake Flask Log10 Reduction: 4 Log10
S. aureus (ATCC 6538); Table 12, SMS, contact time 5 min
  Dynamic Shake Flask Log10 Reduction: 4 Log10
S. aureus (ATCC 6538); Table 12, SMS, contact time 15 min
  Dynamic Shake Flask Log10 Reduction: 4 Log10
S. aureus (ATCC 6538); Table 12, Spunbond, contact time 1 min
  Dynamic Shake Flask Log10 Reduction: 4 Log10
S. aureus (ATCC 6538); Table 12, Spunbond, contact time 5 min
  Dynamic Shake Flask Log10 Reduction: 4 Log10
S. aureus (ATCC 6538); Table 12, Spunbond, contact time 15 min
  Dynamic Shake Flask Log10 Reduction: 4 Log10
S. aureus (ATCC 6538); Table 16, Spunbond substrate, contact time 1 min, listed as 0.5% PHMB
  Dynamic Shake Flask Log10 Reduction: 2.31 Log10
S. aureus (ATCC 6538); Table 16, Spunbond substrate, contact time 1 min, listed as 1.0% PHMB
  Dynamic Shake Flask Log10 Reduction: 4.00 Log10
S. aureus (ATCC 6538); Table 16, Spunbond substrate, contact time 5 min
  Dynamic Shake Flask Log10 Reduction: 4.00 Log10
S. aureus (ATCC 6538); Table 16, Spunbond substrate, contact time 15 min
  Dynamic Shake Flask Log10 Reduction: 4.00 Log10
S. aureus (ATCC 6538); Table 17, Spunbond substrate, contact time 1 min
  Dynamic Shake Flask Log10 Reduction: 0.18 Log10
S. aureus (ATCC 6538); Table 17, Spunbond substrate, contact time 5 min
  Dynamic Shake Flask Log10 Reduction: 0.33 Log10
S. aureus (ATCC 6538); Table 17, Spunbond substrate, contact time 15 min
  Dynamic Shake Flask Log10 Reduction: 0.58 Log10
S. aureus (ATCC 6538); Table 19, SMS substrate, contact time 1 min
  Dynamic Shake Flask Log10 Reduction: 0.18 Log10
S. aureus (ATCC 6538); Table 19, SMS substrate, contact time 5 min
  Dynamic Shake Flask Log10 Reduction: 0.33 Log10
S. aureus (ATCC 6538); Table 19, SMS substrate, contact time 15 min
  Dynamic Shake Flask Log10 Reduction: 0.58 Log10
C. Albicans (ATCC 10231); contact time 1 min
  Dynamic Shake Flask Log10 Reduction: 1.28 Log10
C. Albicans (ATCC 10231); contact time 5 min
  Dynamic Shake Flask Log10 Reduction: 2.38 Log10
C. Albicans (ATCC 10231); contact time 15 min
  Dynamic Shake Flask Log10 Reduction: 3.48 Log10
S. aureus
  zones of inhibition / leaching from the treated substrate: does not leach
